Holding throughout (experiment): inhibition of tumour cell growth, NCI panel, 48 h
Test [1] deals with TK-10 renal.
For test [2], the system named is NCI/ADR-RES ovarian.
In test [3] the test system is MOLT-4 leukemia.
The test system of test [4] is A549 NSCLC.
For test [5], the system named is HL-60(TB) leukemia.
Test [6] has as its system SF-295 CNS.
For test [7], the system named is SF-268 CNS.
The subject of test [8] is MALME-3M melanoma.
For test [9], the system named is SN12C renal.
In test [10] the test system is OVCAR-8 ovarian.
Test [11] deals with ACHN renal.

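Protocol summary: plate cells (96-well), add compound at 5 concentrations, incubate 48 h, interpolate endpoints linearly. Definition used: TGI = concentration required for complete inhibition of growth.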

For `COc1cc(C2C=C(c3ccccc3)Oc3cc4c(cc32)OCO4)cc(OC)c1OC` (configuration not stated), the TGI in test [1] was > 100 µM; in test [2], > 15.2 µM; in test [3], > 100 µM; in test [4] it was > 100 µM; in [5], > 34.3 µM; in test [6] it was > 16.9 µM. The TGI in test [7] was > 100 µM; in [8], > 100 µM; in test [9], > 96.3 µM; in [10], > 32.6 µM; in test [11] it was > 100 µM.

Take `CCOP(=O)(OCC)Oc1c(OC)c2[nH]c(C(=O)OC)cc2c2c(C(=O)O)c[nH]c12`: the TGI in [1], in test [2], in [3], in [4], in test [5] and in test [6] was > 100 µM each time. Besides, the TGI in [7], in [8], in test [9], in test [10] and in test [11] was > 100 µM each time.

`CCCCSC1=N/C(=C\c2ccccc2O)C(=O)N1`: the TGI in test [1], in [2], in test [3], in test [4], in test [5] and in [6] was > 100 µM each time. The TGI in [7], in test [8], in test [9], in [10] and in [11] was > 100 µM each time.

In the case of `S=C(NCc1ccccc1)Nc1sc(=NCc2ccccc2)nc2sc3c(c12)CCN(N1CCc2c(sc4nc(=NCc5ccccc5)sc(NC(=S)NCc5ccccc5)c24)C1)C3`, the TGI was > 90.3 µM in [1]; > 100 µM in test [2]; > 96.1 µM in test [3]; > 62.9 µM in [4]; 42.4 µM in test [5]; > 100 µM in test [6]. Moreover, the TGI was > 100 µM in test [7]; > 100 µM in test [8]; > 52.8 µM in test [9]; > 100 µM in test [10]; > 96.4 µM in [11].

In the case of `C#C[C@]1(O)CC[C@H]2[C@@H]3CCC4=C/C(=N\OCCN5CCCCC5)CC[C@]4(C)[C@H]3CC[C@@]21C`, the TGI was determined as 22.3 µM in [1]; 15.4 µM in test [2]; 11.6 µM in test [3]; 22.7 µM in [4]; 6.23 µM in test [5]; 10.6 µM in [6]. Further, the TGI in [7] turned out to be 21.7 µM; in test [8], 21.6 µM; in test [9], 19.7 µM; in test [10], 21.2 µM; in [11] it was 22.5 µM.

Take `COc1ccc(S(=O)(=O)Nc2ccc(-c3csc(N4C(=O)/C(=C/c5ccccc5[N+](=O)[O-])N=C4c4ccccc4)n3)cc2)cc1Cl`: the TGI in test [1], in test [2], in [3], in [4], in test [5] and in test [6] was > 100 µM throughout. Moreover, the TGI in test [7], in test [8], in test [9], in [10] and in test [11] was > 100 µM in each case.

On to `CCOC(=O)c1c(N)sc2c1CC(C)CC2` (configuration not stated), for which the TGI is > 100 µM in test [1]; > 100 µM in test [2]; > 100 µM in test [3]; > 100 µM in test [4]; 23.2 µM in test [5]; > 100 µM in test [6]. Also, the TGI in test [7], in test [8], in test [9], in test [10] and in [11] was > 100 µM each time.

Regarding `COc1ccc2c(c1)c1c3c(ccc4ncn2c43)N(CCO)CCN=1`, the TGI in [1] worked out at 2.23 µM; in test [2] it was 1.76 µM; in test [3], 0.656 µM; in test [4], 2.22 µM; in test [5] it was 0.407 µM; in test [6], 0.831 µM. The TGI in test [7] worked out at 1.86 µM; in [8], 0.43 µM; in test [9] it was 0.519 µM; in [10], 1.72 µM; in test [11], 0.543 µM.

For the compound `CCOC(=O)C(NC(=O)c1cccc(Cl)c1)(Nc1ccc(S(=O)(=O)Nc2cc(C)on2)cc1)C(F)(F)F` (configuration not stated), the TGI in test [1] was > 100 µM; in test [2], > 100 µM; in test [3], > 100 µM; in test [4] it was > 100 µM; in test [5], > 100 µM; in [6], 33.4 µM. The TGI in test [7], in [8], in [9], in [10] and in test [11] was > 100 µM throughout.

Regarding `CCOC(=O)c1c(O)cn2c1[nH]c1cccc3cccc2c31`, the TGI in test [1], in test [2], in test [3], in [4], in test [5] and in [6] was > 100 µM each time. Further, the TGI in test [7], in [8], in test [9], in test [10] and in [11] was > 100 µM throughout.

Regarding `O=C1C(Cl)=C(Cl)C(=O)C(CCNc2nccs2)=C1Cl`, the TGI was 63.6 µM in test [1]; 58.7 µM in [2]; > 100 µM in test [3]; > 100 µM in test [4]; > 100 µM in [5]; > 100 µM in test [6]. Also, the TGI in test [7] was > 100 µM; in [8], 46.6 µM; in test [9], 73.2 µM; in test [10], 87.3 µM; in [11] it was 63.2 µM.

As to `O=C(Nc1ccccc1)N(CCN(Cc1ccccc1)C(=O)Nc1ccccc1)CCN(Nc1ccccc1)C(=O)Nc1ccccc1`, the TGI in test [1], in test [2], in test [3], in test [4], in test [5] and in test [6] was > 100 µM each time. Further, the TGI in [7], in [8], in test [9], in test [10] and in test [11] was > 100 µM in each case.
